# Results published in patent US20250025438A1, “Derivative of aspartic acid and use thereof in treatment of metabolic diseases such as hepatic fibrosis and non-alcoholic hepatitis” (SHENZHEN JINGTAI TECHNOLOGY CO., LTD., priority 2021, published 2025).
# Counter-ions that a name gives are not always drawn. Where a SMILES comes first, the peptide text is derived from it.
# Key:
# [1] = system: COL3A1; test: In vitro efficacy in semi-activated LX2 cells, qPCR: COL3A1; format: cell-based; conditions: 48 hours, Q-PCR; for inhibition at 50 µM: LX-2, 50 µM
# [2] = system: FN; test: Semi-activated LX2 cells, Western blot: FN protein; format: cell-based; conditions: 50-400 μM, 48 hours, FIG. 3, vs 50 μM aspartic acid
# [3] = system: collagen I and collagen III; test: Semi-activated LX2 cells, qPCR: collagen I and collagen III at the mRNA level; format: cell-based; conditions: 48 hours, Q-PCR, Table 2
# Procedure, shortened: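 LX-2 human hepatic stellate cells, adhered 12 h, were treated with 50 µM test compound for 48 h. Total RNA was extracted, and COL1A1, COL1A2 and COL3A1 mRNA were measured by SYBR Green qPCR.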
# [4] = system: COL1A1; test: In vitro efficacy in semi-activated LX2 cells, qPCR: COL1A1; format: cell-based; conditions: 48 hours, Q-PCR; for inhibition at 50 µM: LX-2, 50 µM
# [5] = Pharmacokinetic testing in rats; format: in vivo, SD rats; conditions: male, SD, rat, plasma, PO 20 mg/kg
# Description: Rats were used as test animals to study the pharmacokinetic behavior of the following compounds in rat plasma.
# The drugs were self-made according to the examples of the present invention.
# SD rats, 6-8 weeks old, 3 for each administration method/example, male.
# The animals were fasted overnight, ate food 8 hours after taking the drug, and drank water freely.
# Blood was collected before administration and at 5 min, 15 min, 30 min, 1 hr, 2 hr, 4 hr, 8 hr and 24 hr after administration.
# The blood was placed on wet ice and centrifuged to obtain plasma sample (2000 g, 5 min at 4° C.).
# The LC-MS/MS method was used to determine the blood drug concentration. The HPLC conditions were: mobile phase A: H2O-0.5% FA; mobile phase B: ACN-0.5% FA;
# WinNonlin 8.2 non-compartmental model was used to estimate pharmacokinetic parameters (PK parameters, including but not limited to peak concentration (Cmax), time to peak (Tmax), terminal elimination rate (Ke), terminal elimination half-life (T1/2), area under drug-time curve (AUC), clearance rate (CL), apparent volume of distribution (Vd), mean residence time (MRT), bioavailability (F), etc.).
# [6] = system: COL1A2; test: In vitro efficacy in semi-activated LX2 cells, qPCR: COL1A2; format: cell-based; conditions: Homo sapiens, LX-2, test concentration 25 μM, 48 hours, Q-PCR, read-out: COL1A2 mRNA inhibition rate
# [7] = system: IL-1β; test: In vitro efficacy in semi-activated LX2 cells, qPCR: IL-1β; format: cell-based; conditions: 48 hours, Q-PCR
# Description: (§1) Test compounds were added to the LX-2 cells respectively, and total RNA in the cells was extracted 48 hours later. This experiment was performed strictly in accordance with the instructions of the Total RNA Kit. The steps were as follows (note: this experiment was performed on ice throughout the entire process, and special RNase-free tips were used throughout the entire process): • 1) The 12-well cell culture plate was taken out from the incubator, the cell culture medium was discarded, the cells were washed twice with 1 mL of 1×PBS, and a negative pressure suction device was used to fully remove PBS; • 2) 350 μL of TRK Lysis Buffer mixture/well was prepared as needed (mixture preparation method: 1 mL of TRKLysis Buffer+20 μL of β-mercaptoethanol), vortexed and mixed well. 350 μL was added to each well of the 12-well cell culture plate, and allowed to stand at room temperature for 5 minutes to fully lyse the cells; • 3) 70% ethanol/well was prepared as needed, vortexed and mixed well. 350 μL was added to each well of the 12-well cell culture plate, mixed well by shaking, and transferred to the spin column (spin column+collection tube were assembled); • 4) Centrifugation was performed at 4° C., 12000 g for 60 sec. The waste liquid was discarded after centrifugation, while the spin column was kept; • 5) 500 μL of RNA Wash Buffer I was added, centrifuged at 4° C., 12000 g for 60 sec, the waste liquid was discarded after centrifugation, and the collection column was kept; • 6) 500 μL of RNA Wash Buffer II (confirmed that ethanol had been added) was added, centrifuged at 4° C., 12000 g for 60 sec, the waste liquid was discarded after centrifugation, and the collection column was kept; • 7) step 6) was repeated once again, centrifugation was performed at 4° C., 12000 g for 90 sec, the waste liquid was discarded after centrifugation, and the collection column was kept; • 8) Centrifugation was performed at 4° C., 12000 g for 120 sec to ensure that the spin column was fully dried; • 9) The dried spin column was inserted into a new 1.5 mL EP tube, and 30 μL of DEPC water was added to the membrane in the center of the spin column. It should be careful not to touch the EP tube cover in this step. It was allowed to stand at room temperature for 5 minutes to ensure that the RNA was fully dissolved in DEPC water. Centrifugation was performed at 4° C., 12000 g for 60 sec, and the EP tube was kept; • 10) NanoDrop ultra-micro-volume spectrophotometer was used to detect RNA concentration;
# (§2) 5.2 Reverse transcription of RNA into cDNA: According to the instructions of PrimeScript™ RT reagent Kit (Perfect Real Time), the specific experimental steps were as follows:
# (§3) 5.3 Q-PCR detection of target gene expression: According to the instructions of Power SYBR® Green PCR Master Mix, the specific operations were as follows:
# (§4) After the reaction was completed, the amplification curve and dissolution curve of Q-PCR were confirmed, and the relative quantification method ([…]) was used to perform data analysis on the experimental results.
# LX2 cells were passaged and plated normally. […] After 48 hours, the cells were collected, total RNA was extracted, and Q-PCR was used to detect the changes in the mRNA expression levels of liver fibrosis-related genes (ACTA2 encoding α-SMA, COL1A1 and COLIA2 encoding collagen I, COL3A1 encoding collagen III, SMAD3 encoding Smad3) and inflammation-related genes (IL1β encoding IL-1β, TNFα encoding TNFα) (for specific methods, see 5. Q-PCR detection of target gene expression as described above). α-SMA was a marker of hepatic stellate cell activation, and collagen I and collagen III were the main components of extracellular matrix deposition.
# [8] = system: α-SMA; test: In vitro efficacy in semi-activated LX2 cells, qPCR: α-SMA; format: cell-based; conditions: 48 hours, Q-PCR
# Procedure, shortened: (§5)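 SYBR Green qPCR read-out of fibrosis-gene mRNA in LX2 cells after 48 h compound treatment (50 µM, added 12 h post-plating); total RNA column-extracted, reverse transcribed, expression derived by relative quantification.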
# [9] = system: liver fibrosis-related genes; test: Semi-activated LX2 cells, qPCR: liver fibrosis-related genes overall; format: cell-based; conditions: 48 hours, Q-PCR, Table 2
# Description: as §1, §3
# (§6) LX2 cells were passaged and plated normally. After adherent growth for 12 hours, 50 µM of the test compound was added. After 48 hours, the cells were collected, total RNA was extracted, and Q-PCR was used to detect the changes in the mRNA expression levels of liver fibrosis-related genes (ACTA2 encoding α-SMA, COL1A1 and COLIA2 encoding collagen I, COL3A1 encoding collagen III, SMAD3 encoding Smad3) and inflammation-related genes (IL1β encoding IL-1β, TNFα encoding TNFα) (for specific methods, see 5. Q-PCR detection of target gene expression as described above). α-SMA was a marker of hepatic stellate cell activation, and collagen I and collagen III were the main components of extracellular matrix deposition.
# [10] = system: Smad3; test: In vitro efficacy in semi-activated LX2 cells, qPCR: Smad3; format: cell-based; conditions: 48 hours, Q-PCR; for inhibition of the expression of Smad3 at the mRNA level: Table 2
# Procedure, shortened: as §5
# [11] = system: TNF-α; test: In vitro efficacy in semi-activated LX2 cells, qPCR: TNF-α; format: cell-based; conditions: Q-PCR; for inhibition at 50 µM: Homo sapiens, LX-2, 48 hours, read-out: TNF-α mRNA inhibition rate
# Description: as §1, §2, §3, §4, §6
# [12] = system: COL1A2; test: In vitro efficacy in semi-activated LX2 cells, qPCR: COL1A2; format: cell-based; conditions: Q-PCR; for inhibition at 50 µM: Homo sapiens, LX-2, 48 hours, read-out: COL1A2 mRNA inhibition rate
# Description: as §1, §2, §3, §4, §6
# [13] = system: α-SMA; test: Semi-activated LX2 cells, Western blot: α-SMA protein; format: cell-based; conditions: 50-400 μM, 48 hours, FIG. 2, vs 50 μM aspartic acid
# [14] = Homo sapiens, read-out: COL3A1 mRNA inhibition rate
# [15] = Homo sapiens, read-out: COL1A1 mRNA inhibition rate
structure (smiles),measurement,setting,value
"CC(C)OC(=O)[C@@H](N)CC(=O)O [Compound 50, 1-isopropyl L-aspartic acid ester hydrochloride]",inhibition at 50 µM,[1]; [14],1 to 10%
same,inhibitory effect on FN protein expression as compared to ASP,[2],stronger inhibitory effects
same,inhibition of the expression of collagen I and collagen III at the mRNA level,[3],could inhibit
same,inhibition at 50 µM,[4]; [15],25 to 50%
"N[C@@H](CC(=O)O)C(=O)O [Aspartic acid, aspartic acid]",AUC(0-t),[5],26700 ng·h/mL
same,Tmax,[5],24 h
same,Cmax,[5]; read-out: Cmax,1960 ng/mL
N[C@@H](CS(=O)O)C(=O)O [Compound 46],inhibition at 25 µM,[6],1 to 10%
"N[C@@H](CC(=O)OCOC(=O)C[C@H](N)C(=O)O)C(=O)O [Compound 55, (2S,2'S)-4,4′-(methylenebis (oxy))bis (2-amino-4-oxobutyric acid) hydrochloride]",inhibition at 25 µM,"[7]; Homo sapiens, LX-2, test concentration 25 μM, read-out: IL-1β mRNA inhibition rate",1 to 10%
same,inhibition at 25 µM,"[1]; Homo sapiens, LX-2, test concentration 25 μM, read-out: COL3A1 mRNA inhibition rate",1 to 10%
same,inhibition at 25 µM,[6],1 to 10%
same,inhibition at 25 µM,"[8]; test concentration 25 μM, read-out: α-SMA mRNA inhibition rate",1 to 10%
same,inhibition at 25 µM,"[4]; Homo sapiens, LX-2, test concentration 25 μM, read-out: COL1A1 mRNA inhibition rate",1 to 10%
CCOC(=O)C[C@H](N)C(=O)OCC.Cl [Compound 12],inhibition of the mRNA expression levels of liver fibrosis-related genes (overall),[9],stronger effects
same,IL-1β mRNA inhibition rate,[7]; 50 µM,E (E represented that the inhibition rate was 1% to 10%)
same,COL3A1 mRNA inhibition rate,[1]; 50 µM,C (C represented that the inhibition rate was 25% to 50%)
same,Smad3 mRNA inhibition rate,[10]; 50 µM,D (D represented that the inhibition rate was 10% to 25%)
same,inhibition of the expression of Smad3 at the mRNA level,[10],could inhibit
same,inhibition of the expression of collagen I and collagen III at the mRNA level,[3],could inhibit
same,TNF-α mRNA inhibition rate,"[11]; 50 µM, 48 hours",D (D represented that the inhibition rate was 10% to 25%)
same,α-SMA mRNA inhibition rate,[8]; 50 µM,E (E represented that the inhibition rate was 1% to 10%)
same,COL1A2 mRNA inhibition rate,"[12]; 50 µM, 48 hours",E (E represented that the inhibition rate was 1% to 10%)
same,COL1A1 mRNA inhibition rate,[4]; 50 µM,C (C represented that the inhibition rate was 25% to 50%)
COC(=O)[C@H](CC(=O)O)NC(=O)OC(C)(C)C [Compound 26],inhibition of the mRNA expression levels of liver fibrosis-related genes (overall),[9],stronger effects
same,inhibition at 50 µM,[1]; [14],25 to 50%
same,inhibition of the expression of Smad3 at the mRNA level,[10],could inhibit
same,inhibition at 50 µM,"[10]; Homo sapiens, LX-2, 50 µM, read-out: Smad3 mRNA inhibition rate",10 to 25%
same,inhibition of the expression of collagen I and collagen III at the mRNA level,[3],could inhibit
same,inhibition at 50 µM,[11],10 to 25%
same,inhibition at 50 µM,"[8]; 50 µM, read-out: α-SMA mRNA inhibition rate",10 to 25%
same,inhibition of the expression of α-SMA at the mRNA level,[8]; Table 2,could inhibit
same,inhibition at 50 µM,[12],1 to 10%
same,inhibition at 50 µM,[4]; [15],25 to 50%
COC(=O)[C@H](Cc1ccccc1)NC(=O)[C@@H](N)CC(=O)O [Compound 48] (HELM PEPTIDE1{D.F.[CO[*:1]]}$$$$V2.0),inhibition of the mRNA expression levels of liver fibrosis-related genes (overall),[9],stronger effects
same,inhibition at 50 µM,[1]; [14],10 to 25%
same,inhibition of the expression of collagen I and collagen III at the mRNA level,[3],could inhibit
same,inhibition at 50 µM,[11],1 to 10%
same,inhibitory effect on α-SMA protein as compared to ASP,[13],stronger inhibitory effects
same,inhibition at 50 µM,[4]; [15],25 to 50%
CC(C)(C)OC(=O)C[C@H](N)C(=O)OC(C)(C)C [Compound 41],inhibition at 50 µM,"[7]; Homo sapiens, LX-2, 50 µM, read-out: IL-1β mRNA inhibition rate",1 to 10%
same,inhibition at 50 µM,[1]; [14],1 to 10%
same,inhibitory effect on α-SMA protein as compared to ASP,[13],stronger inhibitory effects
"CC(C)OC(=O)OCOC(=O)C[C@H](N)C(=O)O [Compound 52, 4-(((isopropoxycarbonyl)oxy)methyl) L-aspartic acid ester hydrochloride]",inhibition of the mRNA expression levels of liver fibrosis-related genes (overall),[9],stronger effects
same,inhibition at 50 µM,[1]; [14],25 to 50%
same,inhibitory effect on FN protein expression as compared to ASP,[2],stronger inhibitory effects
same,inhibition of the expression of collagen I and collagen III at the mRNA level,[3],could inhibit
same,inhibitory effect on α-SMA protein as compared to ASP,[13],stronger inhibitory effects
same,inhibition at 50 µM,[12],1 to 10%
same,inhibition at 50 µM,[4]; [15],25 to 50%
